In ChEMBL document CHEMBL1201862, “PubChem BioAssay data set” (2004):
The source made the active and inactive calls.

What was measured:
[1] = target: T1, Beta-2 adrenergic receptor (Homo sapiens, UniProt P07550); assay: ADRB2 activation measured by internalization – cell-based, FAP fluorogen, flow cytometry, cherry pick 1, dose response (AID 588763); format: functional
[2] = target: T1, Beta-2 adrenergic receptor; assay: Dose response for HTS for Beta-2AR agonists via FAP method from Powderset3.; format: functional
Exodeoxyribonuclease V = target: T2, Exodeoxyribonuclease V (Escherichia coli (strain K12), UniProt P04993+P07648+P08394); assay: RecBCD inhibition via phage-restricted bacterial growth – absorbance, V66 E. coli, mutant T4 phage, counter-screen for AddAB inhibitor project, dose response (AID 492957); format: functional, cell-based, Escherichia coli str. K-12 substr. MG1655
T2 sequence (P04993 whole entry): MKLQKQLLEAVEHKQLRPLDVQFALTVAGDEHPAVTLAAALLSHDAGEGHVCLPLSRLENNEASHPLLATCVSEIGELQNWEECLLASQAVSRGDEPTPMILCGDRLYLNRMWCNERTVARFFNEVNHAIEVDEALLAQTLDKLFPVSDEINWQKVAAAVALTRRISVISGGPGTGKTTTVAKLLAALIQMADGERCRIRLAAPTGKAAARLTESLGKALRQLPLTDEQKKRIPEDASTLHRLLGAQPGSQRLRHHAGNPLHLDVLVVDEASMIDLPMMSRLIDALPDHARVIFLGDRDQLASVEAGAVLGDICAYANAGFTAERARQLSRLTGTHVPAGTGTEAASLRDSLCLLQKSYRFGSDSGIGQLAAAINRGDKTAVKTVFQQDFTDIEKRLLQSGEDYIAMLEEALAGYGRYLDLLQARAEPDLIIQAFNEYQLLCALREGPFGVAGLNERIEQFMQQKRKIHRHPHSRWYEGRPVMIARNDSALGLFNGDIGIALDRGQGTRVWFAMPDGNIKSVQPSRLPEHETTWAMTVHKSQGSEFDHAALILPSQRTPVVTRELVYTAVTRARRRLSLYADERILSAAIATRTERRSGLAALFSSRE
T2 sequence (P07648 whole entry): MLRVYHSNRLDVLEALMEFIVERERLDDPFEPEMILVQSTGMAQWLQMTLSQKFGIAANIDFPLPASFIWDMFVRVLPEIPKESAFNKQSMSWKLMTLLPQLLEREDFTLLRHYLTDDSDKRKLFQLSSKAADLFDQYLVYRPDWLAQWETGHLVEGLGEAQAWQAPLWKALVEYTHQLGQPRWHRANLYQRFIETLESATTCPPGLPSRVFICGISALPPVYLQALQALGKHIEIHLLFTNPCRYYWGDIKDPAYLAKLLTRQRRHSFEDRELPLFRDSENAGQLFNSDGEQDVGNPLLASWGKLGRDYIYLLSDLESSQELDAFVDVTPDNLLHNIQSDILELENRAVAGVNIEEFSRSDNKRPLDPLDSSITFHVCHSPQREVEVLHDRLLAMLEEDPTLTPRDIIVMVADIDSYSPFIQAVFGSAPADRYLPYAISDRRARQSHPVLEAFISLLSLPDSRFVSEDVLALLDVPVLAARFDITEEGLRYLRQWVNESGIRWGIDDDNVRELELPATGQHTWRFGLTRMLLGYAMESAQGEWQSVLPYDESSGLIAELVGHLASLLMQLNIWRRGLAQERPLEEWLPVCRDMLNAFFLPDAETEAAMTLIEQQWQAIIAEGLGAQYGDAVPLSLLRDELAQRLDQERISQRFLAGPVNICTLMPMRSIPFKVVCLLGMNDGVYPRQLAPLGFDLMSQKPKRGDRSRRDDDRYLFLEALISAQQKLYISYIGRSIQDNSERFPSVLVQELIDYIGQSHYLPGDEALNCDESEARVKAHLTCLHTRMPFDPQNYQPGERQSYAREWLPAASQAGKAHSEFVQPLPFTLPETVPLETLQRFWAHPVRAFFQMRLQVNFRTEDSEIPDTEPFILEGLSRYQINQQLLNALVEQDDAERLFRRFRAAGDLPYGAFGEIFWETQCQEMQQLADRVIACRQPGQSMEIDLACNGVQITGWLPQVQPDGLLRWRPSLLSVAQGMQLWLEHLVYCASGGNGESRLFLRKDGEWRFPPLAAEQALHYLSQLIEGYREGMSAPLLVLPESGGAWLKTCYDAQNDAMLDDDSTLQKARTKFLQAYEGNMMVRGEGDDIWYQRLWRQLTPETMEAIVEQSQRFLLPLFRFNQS
T2 sequence (P08394 whole entry): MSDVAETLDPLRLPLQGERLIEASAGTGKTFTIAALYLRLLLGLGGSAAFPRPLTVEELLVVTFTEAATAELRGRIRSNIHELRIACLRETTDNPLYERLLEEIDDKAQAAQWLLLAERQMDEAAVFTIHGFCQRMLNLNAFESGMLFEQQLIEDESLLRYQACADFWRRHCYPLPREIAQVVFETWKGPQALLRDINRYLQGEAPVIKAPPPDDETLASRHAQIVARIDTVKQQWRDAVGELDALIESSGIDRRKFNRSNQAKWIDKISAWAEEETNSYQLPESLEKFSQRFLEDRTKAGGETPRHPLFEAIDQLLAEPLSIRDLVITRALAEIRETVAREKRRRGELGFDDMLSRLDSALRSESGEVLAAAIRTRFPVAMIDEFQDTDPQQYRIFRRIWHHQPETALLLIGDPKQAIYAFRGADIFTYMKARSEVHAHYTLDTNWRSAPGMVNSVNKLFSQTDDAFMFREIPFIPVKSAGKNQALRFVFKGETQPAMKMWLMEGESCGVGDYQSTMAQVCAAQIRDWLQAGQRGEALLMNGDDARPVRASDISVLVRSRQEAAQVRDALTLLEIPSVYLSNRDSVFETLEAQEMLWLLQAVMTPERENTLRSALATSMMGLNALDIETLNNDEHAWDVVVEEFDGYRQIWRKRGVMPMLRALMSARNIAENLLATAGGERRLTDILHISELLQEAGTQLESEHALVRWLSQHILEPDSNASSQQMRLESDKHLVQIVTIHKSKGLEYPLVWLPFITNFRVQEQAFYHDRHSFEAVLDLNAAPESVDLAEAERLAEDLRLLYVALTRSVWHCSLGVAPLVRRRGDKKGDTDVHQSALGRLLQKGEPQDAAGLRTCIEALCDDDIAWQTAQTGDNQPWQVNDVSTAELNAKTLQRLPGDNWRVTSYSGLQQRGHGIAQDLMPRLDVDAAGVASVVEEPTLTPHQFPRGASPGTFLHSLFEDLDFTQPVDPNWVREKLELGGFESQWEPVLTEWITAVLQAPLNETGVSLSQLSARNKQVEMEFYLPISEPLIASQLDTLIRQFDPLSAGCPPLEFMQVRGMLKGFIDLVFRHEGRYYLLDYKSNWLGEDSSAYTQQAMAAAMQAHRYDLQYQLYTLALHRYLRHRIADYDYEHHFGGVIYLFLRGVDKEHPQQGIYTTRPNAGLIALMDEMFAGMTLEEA

[3] = Counterscreen for AddAB inhibitors: absorbance-based bacterial cell-based high throughput dose response assay for inhibitors of bacterial viability. [Related pubchem assays (depositor defined):AID435030, AID449728, AID449731, AID488942, AID488955, AID488956]; format: functional
Albumin = Albumin (Bos taurus, UniProt P02769); assay: Counterscreen for inhibitors of T-cell receptor (TCR)-CD3 interaction: Fluorescence-based biochemical high throughput dose response assay to identify inhibitors of T-cell receptor (TCR)-CD3 interaction using a TAMRA-labeled BSA probe.; format: functional
Albumin, sequence (P02769 whole entry): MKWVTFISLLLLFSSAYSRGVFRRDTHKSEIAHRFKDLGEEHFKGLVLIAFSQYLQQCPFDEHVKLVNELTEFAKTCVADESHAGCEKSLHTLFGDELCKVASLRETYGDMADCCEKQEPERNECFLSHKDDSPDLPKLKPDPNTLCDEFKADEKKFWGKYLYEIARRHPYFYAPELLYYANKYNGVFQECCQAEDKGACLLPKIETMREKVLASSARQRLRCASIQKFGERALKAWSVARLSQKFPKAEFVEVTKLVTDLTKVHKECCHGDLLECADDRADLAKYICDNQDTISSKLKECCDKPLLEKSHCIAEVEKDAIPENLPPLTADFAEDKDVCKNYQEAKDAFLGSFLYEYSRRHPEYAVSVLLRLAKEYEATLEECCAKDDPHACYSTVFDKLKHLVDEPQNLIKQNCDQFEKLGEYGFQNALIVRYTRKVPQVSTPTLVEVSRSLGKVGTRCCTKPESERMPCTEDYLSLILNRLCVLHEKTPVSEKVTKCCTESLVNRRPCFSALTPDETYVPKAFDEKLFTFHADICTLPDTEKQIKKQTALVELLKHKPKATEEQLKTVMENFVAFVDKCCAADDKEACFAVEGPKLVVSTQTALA

[4] = target: Fructose-bisphosphate aldolase (Mycobacterium tuberculosis, UniProt P9WQA3); assay: Fluorescence-based biochemical high throughput dose response assay for inhibitors of the fructose-bisphosphate aldolase (FBA) of M. tuberculosis.; format: functional
Fructose-bisphosphate aldolase, sequence (P9WQA3 whole entry): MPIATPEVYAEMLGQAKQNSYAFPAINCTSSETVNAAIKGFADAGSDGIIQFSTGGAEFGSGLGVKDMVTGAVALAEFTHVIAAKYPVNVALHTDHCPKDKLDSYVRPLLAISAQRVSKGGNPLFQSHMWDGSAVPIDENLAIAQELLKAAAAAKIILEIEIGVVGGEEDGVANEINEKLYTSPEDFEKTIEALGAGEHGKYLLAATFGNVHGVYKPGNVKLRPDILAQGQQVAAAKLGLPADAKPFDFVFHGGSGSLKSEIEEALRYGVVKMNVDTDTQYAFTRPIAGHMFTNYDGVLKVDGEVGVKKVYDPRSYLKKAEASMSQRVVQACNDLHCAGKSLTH

[5] = test system: Streptococcus sp. 'group A'; assay: Streptococcus pyogenes SK(-)GAS viability under kanamycin – luminescence, BacTiterGlo, confirmation, counter-screen for streptokinase expression inhibitor project, dose response (AID 1900); format: functional, organism-based
Streptokinase A = target: T3, Streptokinase A (Streptococcus pyogenes serotype M1, UniProt P10520); assay: viability-normalized secreted streptokinase activity reduction – plasminogen activation absorbance, OD405, dose response (AID 1914); format: functional, Streptococcus pyogenes M1 GAS;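 note: secreted streptokinase activity via plasminogen activation per viability signal from cell pellet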
T3 sequence (P10520 whole entry): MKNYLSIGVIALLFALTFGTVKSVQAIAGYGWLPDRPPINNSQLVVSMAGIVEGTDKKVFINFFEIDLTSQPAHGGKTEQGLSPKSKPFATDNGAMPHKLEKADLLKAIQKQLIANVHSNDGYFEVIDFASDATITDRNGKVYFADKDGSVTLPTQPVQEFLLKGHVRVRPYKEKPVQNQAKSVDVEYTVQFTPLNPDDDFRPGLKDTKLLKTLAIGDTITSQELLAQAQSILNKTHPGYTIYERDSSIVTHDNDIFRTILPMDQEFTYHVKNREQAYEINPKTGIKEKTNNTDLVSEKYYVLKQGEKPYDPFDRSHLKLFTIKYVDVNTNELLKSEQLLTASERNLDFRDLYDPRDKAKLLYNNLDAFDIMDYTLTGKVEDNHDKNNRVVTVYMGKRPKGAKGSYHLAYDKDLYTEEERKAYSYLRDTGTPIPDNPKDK

Streptococcus = assay: GAS UMAA2166 growth inhibition – luminescence, BacTiterGlo, counter-screen for streptokinase expression inhibitor project, dose response (AID 1915); format: functional, organism-based;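 note: potency for reduction of bacterial viability or growth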
[6] = target: T4, Probable nicotinate-nucleotide adenylyltransferase (Staphylococcus aureus (strain N315), UniProt P65502); format: functional, Staphylococcus aureus subsp. aureus N315;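 for IC50 Mean: confirmatory dose-response retesting of NadD inhibitor hits first found in an ultra-high-throughput screen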
T4 sequence (P65502 whole entry): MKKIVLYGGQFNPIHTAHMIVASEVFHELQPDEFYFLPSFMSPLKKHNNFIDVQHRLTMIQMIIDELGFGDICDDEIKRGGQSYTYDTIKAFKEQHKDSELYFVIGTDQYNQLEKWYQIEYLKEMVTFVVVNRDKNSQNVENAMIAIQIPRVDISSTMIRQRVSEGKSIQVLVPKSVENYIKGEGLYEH

[7] = target: T4, Probable nicotinate-nucleotide adenylyltransferase; format: functional, Staphylococcus aureus subsp. aureus N315; details: read-out: IC50_Mean
Nonstructural protein 1 = Nonstructural protein 1 (Influenza A virus, UniProt Q194T2); format: functional, Influenza A virus (A/California/07/2009(H1N1))
Nonstructural protein 1, sequence (Q194T2 whole entry): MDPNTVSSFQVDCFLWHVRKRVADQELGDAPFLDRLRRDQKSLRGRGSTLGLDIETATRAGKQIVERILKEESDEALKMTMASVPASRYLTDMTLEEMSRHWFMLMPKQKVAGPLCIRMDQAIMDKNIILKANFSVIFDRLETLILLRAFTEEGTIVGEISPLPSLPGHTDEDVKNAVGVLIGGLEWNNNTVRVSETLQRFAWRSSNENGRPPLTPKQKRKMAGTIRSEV

[8] = viability loss in HeLa cells – cytotoxicity control for MgcRacGAP inhibitor project, dose response (AID 624300); format: functional
[9] = target: T5, Rac GTPase-activating protein 1 (Homo sapiens, UniProt Q9H0H5); assay: blockers of MgcRacGAP-driven Rac1 GTP hydrolysis – biochemical, ADP Hunter fluorescence, primary and confirmatory, confirmation (AID 624330); format: functional
T5 sequence (Q9H0H5 whole entry): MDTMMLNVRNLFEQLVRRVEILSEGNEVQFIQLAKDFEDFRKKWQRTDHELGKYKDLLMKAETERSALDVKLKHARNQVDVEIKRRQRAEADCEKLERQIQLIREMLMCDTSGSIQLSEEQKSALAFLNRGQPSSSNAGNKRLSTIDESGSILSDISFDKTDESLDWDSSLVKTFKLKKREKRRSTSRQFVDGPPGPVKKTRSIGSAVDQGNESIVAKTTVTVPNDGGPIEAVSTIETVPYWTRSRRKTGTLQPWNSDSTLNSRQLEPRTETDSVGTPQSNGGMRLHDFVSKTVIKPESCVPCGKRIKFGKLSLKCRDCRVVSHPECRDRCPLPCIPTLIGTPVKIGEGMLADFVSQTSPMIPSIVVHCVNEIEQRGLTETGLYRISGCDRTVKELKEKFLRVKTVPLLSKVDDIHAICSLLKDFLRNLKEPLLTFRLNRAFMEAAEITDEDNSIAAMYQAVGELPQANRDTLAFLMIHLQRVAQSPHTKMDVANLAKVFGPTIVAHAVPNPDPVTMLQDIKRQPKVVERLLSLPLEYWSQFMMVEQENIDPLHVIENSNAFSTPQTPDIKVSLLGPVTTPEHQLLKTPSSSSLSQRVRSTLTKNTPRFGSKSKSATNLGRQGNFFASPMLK

[10] = TNFa-induced NF-kB reporter signal decrease – HEK293 LMP1 reporter cells, dry powder, set 2, selectivity assay for EBV LMP1 NF-kB inhibitor project, dose response (AID 624369); format: functional
[11] = cytotoxicity in HEK293 background cells – cell-based, dry powder, set 2, counter-screen for EBV LMP1 inhibitor project, dose response (AID 624374); format: functional
Protein S100-A4 = Protein S100-A4 (Homo sapiens, UniProt P26447); assay: human S100A4 peptide interaction inhibition curves – biochemical, fluorescence polarization, cherry-picked hits, dose response (AID 687001); format: functional
Protein S100-A4, sequence (P26447 whole entry): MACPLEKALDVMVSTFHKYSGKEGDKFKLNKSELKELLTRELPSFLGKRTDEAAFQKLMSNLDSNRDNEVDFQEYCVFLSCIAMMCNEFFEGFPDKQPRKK

HeLa = assay: viability loss in HeLa cells – cell-based, ATP luminescence, cherry-pick samples, cytotoxicity control, dose response (AID 687004); format: functional; details: Homo sapiens
Protein Wnt-3a = Protein Wnt-3a (Mus musculus, UniProt P27467); assay: SAR analysis of small molecule antagonists of Gli-SUFU in a Wnt3a luminescent reporter assay.; format: functional
Protein Wnt-3a, sequence (P27467 whole entry): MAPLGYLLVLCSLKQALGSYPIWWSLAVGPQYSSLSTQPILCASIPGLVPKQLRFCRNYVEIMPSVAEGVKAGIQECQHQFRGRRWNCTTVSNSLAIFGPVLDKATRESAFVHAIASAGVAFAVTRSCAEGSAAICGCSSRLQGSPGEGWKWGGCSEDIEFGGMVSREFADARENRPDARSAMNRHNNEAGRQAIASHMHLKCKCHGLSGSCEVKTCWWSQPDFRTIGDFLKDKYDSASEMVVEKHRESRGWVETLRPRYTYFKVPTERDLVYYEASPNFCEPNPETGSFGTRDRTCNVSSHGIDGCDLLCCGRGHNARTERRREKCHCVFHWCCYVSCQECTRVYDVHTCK

[12] = viability loss in HepG2 hepatoma cells – cell-based, cherry-picks, set 5, cytotoxicity control, dose response (AID 1053118); format: functional

T1 sequence (P07550 whole entry): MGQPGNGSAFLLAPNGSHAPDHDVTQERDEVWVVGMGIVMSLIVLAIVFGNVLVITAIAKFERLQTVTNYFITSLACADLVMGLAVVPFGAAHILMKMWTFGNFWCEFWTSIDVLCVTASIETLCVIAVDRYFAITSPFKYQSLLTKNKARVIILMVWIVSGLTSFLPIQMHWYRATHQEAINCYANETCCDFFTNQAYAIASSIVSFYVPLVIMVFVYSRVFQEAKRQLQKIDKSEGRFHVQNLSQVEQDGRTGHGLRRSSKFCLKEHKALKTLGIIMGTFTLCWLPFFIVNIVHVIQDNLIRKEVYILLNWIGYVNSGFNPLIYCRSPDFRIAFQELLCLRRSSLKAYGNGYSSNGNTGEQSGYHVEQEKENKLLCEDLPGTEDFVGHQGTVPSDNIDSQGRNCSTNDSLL

Cc1ccc(OCc2cc(C(=O)N(C)Cc3cnn(-c4ccccc4C)c3)no2)cn1
EC50 [1]: 0.305 µM (active) | EC50 [2]: 0.0555 µM (active)

O=C(NNC(=O)C1CCN(S(=O)(=O)c2ccccc2C(F)(F)F)CC1)c1ccccc1O
IC50 (Exodeoxyribonuclease V): > 119 µM (inactive) | IC50 [3]: > 119 µM (inactive) | IC50 (Albumin): > 94.1 µM (inactive)

COc1ccc2nc(NCCCNC(=O)c3cc(OC)c(OC)c(OC)c3)c(C#N)cc2c1
IC50 [4]: 1.78 µM (active)

Cc1c(C(=O)NNC(=O)c2ccccc2O)oc2ccc(Br)cc12
EC50 [5]: 8.43 µM (active) | EC50 (Streptokinase A): > 150 µM (not active) | EC50 (Streptococcus): 8.5 µM (active) | IC50 (Exodeoxyribonuclease V): > 119 µM (inactive) | IC50 [3]: > 119 µM (inactive) | IC50 [6]: 15.3 µM (active) | IC50 [7]: 45.8 µM (active)

CN(C)c1ccc(C=c2c3ccccc3n3c2cc(-c2ccc(Cl)cc2)[n+]3C)cc1
IC50 (Nonstructural protein 1): 5.85 µM (active) | CC50 [8]: 18.9 µM (active) | IC50 [9]: 44.9 µM (active)

COc1cccc(C#Cc2ccc([C@@H]3[C@@H](C#N)N(C(=O)c4ccccn4)[C@@H]3CO)cc2)c1
AbsAC35 [10]: 84.96 µM | AbsAC35 [11]: 328.8 µM

CSCc1cc(C(=O)NC2CC2)c(N)s1
AC50 (Protein S100-A4): 17.5 µM (active)

COc1cccc(S(=O)(=O)N2C[C@@H](O)COC[C@H]3O[C@H](CC(=O)Nc4ccccc4)CC[C@@H]32)c1
AC50 (HeLa): > 52 µM (inactive)

O=C(Nc1cc(N2CCCCC2)ncn1)c1ccco1
IC50 (Protein Wnt-3a): > 21.8 µM (inactive)

CO[C@H]1CN(C)C(=O)c2ccc(NC(=O)Nc3ccc(Cl)c(Cl)c3)cc2OC[C@H](C)NC[C@H]1C
AC50 [12]: 13.5 µM (active)
